Source: publication PMC11891579, “Fluorescent PyrAte-(S)-citalopram conjugates enable imaging of the serotonin transporter in living tissue” (Chemical Science, 2025)

Key:
YhDAT = target: T1, YhDAT (Homo sapiens, UniProt Q01959); test: radioligand uptake inhibition assay ([3H]DA); format: cell-based; conditions: for IC50: HEK293 stably expressing YhDAT, 100 nM [3H]DA, mean and SD, N = 3-6, read-out: IC50, uptake inhibition at DAT (YhDAT); for Hill coefficient nH at DAT: uptake inhibition curve
T1 construct: expressed in transfected cells
Procedure: 1. Biological characterization
1.1. Experimental methods
Buffer and solution compositions (in mM) are as follows:
Krebs-HEPES buffer (KHB): 120 NaCl, 3 KCl, 2 CaCl2, 2 MgCl2, 20 glucose, 10 HEPES NaOH, pH = 7.3 – 7.4. […]
10 mM glucose, 1.25 mM NaH2PO4, pH = 7.4 (oxygenated with 95% O2, 5% CO2).
Human embryonic kidney 293 cells (HEK293) stably expressing the mCherry-tagged, YFP-tagged, and GFP-tagged human isoforms of SERT (mCherry-SERT, YhSERT, GhSERT), DAT (YhDAT), NET (hNET), and OCT3 (YhOCT3) were cultured in Dulbecco's modified Eagle's medium (DMEM) with high glucose (4.5 g/L) and l-glutamine (584 mg/L), supplemented with 10% fetal calf serum (FCS), 100 units/mL penicillin and 100 µg/mL streptomycin. The cells were cultured in a humidified atmosphere (37 °C, 5% CO2). Geneticin (50 µg/mL), Blasticidin (6 µg/mL), and Zeocin® (150 µg/mL) were added to maintain the selection pressure for the stable cell lines. Cells were typically seeded 24 hours prior to the experiments.
For uptake inhibition experiments, cells were seeded at 3.6 x 10^4 cells/0.2 mL into 96-well plates coated […]
with poly-d-lysine (PDL). […]
For uptake inhibition experiments, the cell medium was aspirated and the cells were washed once with 0.2 mL/well KHB at room temperature. The cells were pre-incubated with increasing concentrations of the substance of interest, diluted in KHB (0.05 mL/well). The pre-incubation solution was replaced with 0.05 mL/well KHB solution still containing the substance of interest and additionally the tritiated substrate (100 nM [3H]DA for YhDAT; 100 nM [3H]5HT for YhSERT; 20 nM and 50 nM [3H]MPP+ for hNET and YhOCT3), after 6 minutes (YhSERT), 5 minutes (YhDAT, hNET), or 10 minutes (YhOCT3). Substrate uptake was stopped after one minute (for [3H]DA and [3H]5HT), three minutes, or […]
The KHB was aspirated immediately. […] Non-specific uptake was determined in the presence of 30 µM paroxetine (for YhSERT), 50 µM GBR12909 (for YhDAT and hNET), or 100 µM decynium-22 (for YhOCT3). […]
[3H]-imipramine, and increasing concentrations of test compound, for 60 min at 20 – 22 °C. […] The amount of radioactivity in the filters was measured using a Tri-Carb 2800TR liquid scintillation analyzer (PerkinElmer). The Ki was calculated from the measured IC50 using the Cheng-Prusoff equation.
Prior to imaging, cell culture medium was replaced with pre-warmed KHB. […] PyrAtes were excited using a 405 nm laser, and its fluorescent signals collected using 525/50 nm emission filters; mCherry was excited using a 561 nm laser, and fluorescence was collected using 595/50 nm emission filters. […]
5HT-mediated currents were measured at room temperature (20-25°C) using whole-cell patch clamp in HEK293 cells stably expressing SERT. […]

SERT = target: T2, SERT (Homo sapiens, UniProt P31645); test: radioligand binding assay, [3H]-imipramine competition in SERT-containing membrane fractions; conditions: 3 nM [3H]-imipramine; membranes of HEK293 YhSERT; mean ± SD of three experiments; Cheng-Prusoff; read-out: Ki, competitive binding with imipramine
T2 construct: expressed in transfected cells
Procedure: ten minutes (for [3H]MPP+), by exchange of the substrate-containing buffer with 0.2 mL ice-cold KHB.
The KHB was aspirated immediately. Cells were lysed and prepared for [3H] content analysis by adding 0.2 mL Ultima Gold™ XR liquid scintillation cocktail. […]
microplate liquid scintillation counter. Non-specific uptake was determined in the presence of 30 µM paroxetine (for YhSERT), 50 µM GBR12909 (for YhDAT and hNET), or 100 µM decynium-22 (for YhOCT3).
For radioligand binding assays, membranes were first prepared from HEK293 cells stably expressing YhSERT. Cells were harvested from dishes using a plastic scraper and ice-cold PBS. Cells were recovered as a pellet after centrifugation (400× g) for 10 min at 4°C, and then re-suspended in HME buffer. The cell suspension was frozen rapidly by immersing in liquid N2, and then immediately thawed and sonicated for three 12 pulses/min cycles. Membrane fractions were collected after centrifugation at 40000× g for 15 minutes, and then re-suspended in HME buffer. Protein concentration was determined using Coomassie Brilliant Blue kit (BioRad Laboratories, California, USA). The binding reactions were carried out in a final volume of 0.25 mL B2 buffer containing 15 µg membranes, 3 nM

T1 sequence (Q01959 whole entry): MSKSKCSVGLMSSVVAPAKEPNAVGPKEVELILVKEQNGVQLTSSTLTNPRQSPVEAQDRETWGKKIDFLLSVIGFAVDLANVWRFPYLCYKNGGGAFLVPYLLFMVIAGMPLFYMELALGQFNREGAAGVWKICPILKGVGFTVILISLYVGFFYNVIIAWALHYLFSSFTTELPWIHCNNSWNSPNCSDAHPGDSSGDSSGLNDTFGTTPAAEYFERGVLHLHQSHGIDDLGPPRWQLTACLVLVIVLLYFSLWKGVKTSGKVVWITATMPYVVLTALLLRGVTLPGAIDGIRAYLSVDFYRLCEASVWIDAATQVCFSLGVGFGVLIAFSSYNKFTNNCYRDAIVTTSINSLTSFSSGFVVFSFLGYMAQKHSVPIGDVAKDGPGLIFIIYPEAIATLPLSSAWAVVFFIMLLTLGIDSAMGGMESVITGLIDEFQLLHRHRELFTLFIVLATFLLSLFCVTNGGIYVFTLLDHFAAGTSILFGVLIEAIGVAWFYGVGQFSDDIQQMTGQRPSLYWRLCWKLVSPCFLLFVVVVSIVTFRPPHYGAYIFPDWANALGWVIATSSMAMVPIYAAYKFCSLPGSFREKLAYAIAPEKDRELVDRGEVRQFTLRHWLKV
T2 sequence (P31645 whole entry): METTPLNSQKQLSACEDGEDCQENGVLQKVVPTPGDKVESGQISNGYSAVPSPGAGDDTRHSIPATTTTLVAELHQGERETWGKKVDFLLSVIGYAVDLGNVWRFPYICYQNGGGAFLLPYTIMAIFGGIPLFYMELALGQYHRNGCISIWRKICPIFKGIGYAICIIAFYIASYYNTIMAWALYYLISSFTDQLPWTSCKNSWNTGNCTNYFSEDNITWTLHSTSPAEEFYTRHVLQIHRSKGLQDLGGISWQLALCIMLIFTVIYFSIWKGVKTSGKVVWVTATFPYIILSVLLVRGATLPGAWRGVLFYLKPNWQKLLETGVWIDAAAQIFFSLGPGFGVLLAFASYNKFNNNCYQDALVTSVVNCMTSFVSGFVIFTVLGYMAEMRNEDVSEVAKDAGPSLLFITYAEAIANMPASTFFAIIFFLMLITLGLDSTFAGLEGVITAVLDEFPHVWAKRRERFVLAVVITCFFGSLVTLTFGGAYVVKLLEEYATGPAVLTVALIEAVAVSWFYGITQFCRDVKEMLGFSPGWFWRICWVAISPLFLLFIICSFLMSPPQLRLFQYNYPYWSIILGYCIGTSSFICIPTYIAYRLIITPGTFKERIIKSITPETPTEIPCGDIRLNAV

Row | IC50 (YhDAT) [nM] | Hill coefficient nH at DAT (YhDAT) | Ki (SERT) [nM] | SMILES
1 | 3570 | −1.3 | – | CCN(CC)c1ccc(-c2cc[n+]3c(-c4ccccc4)c(N4CCCC4)n(CCCC(=O)NCc4ccc5c(c4)CO[C@@]5(CCCN(C)C)c4ccc(F)cc4)c3c2)cc1 [PYR-C3-CIT, PyrAte-C3-(S)-citalopram]
2 | 2050 | −1.5 | 110 ± 70 | CCN(CC)c1ccc(-c2cc[n+]3c(-c4ccccc4)c(N4CCCC4)n(CCCCCCC(=O)NCc4ccc5c(c4)CO[C@@]5(CCCN(C)C)c4ccc(F)cc4)c3c2)cc1 [PYR-C6-CIT, PyrAte-C6-(S)-citalopram]
